According to US20200079801A1, “TRISUBSTITUTEDSILYLBENZYLBENZIMIDAZOLES AND ANALOGUES” (Bayer Aktiengesellschaft, priority 2017, published 2020):

Experiments:
Pyricularia oryzae = test: microbe, parasite or virus in culture; assay type: cell-based; conditions: 120 h, read-out: efficacy (inhibition of fungal growth)
[1] = for logP: HPLC, C 18 reversed phase, 40° C., 0.1% aqueous formic acid and acetonitrile, gradient 10% to 95% acetonitrile
Protocol: temperature: 40° C.; mobile phases: 0.1% aqueous formic acid and acetonitrile; linear gradient from 10% acetonitrile to 95% acetonitrile;
Calibration was carried out using unbranched alkan-2-ones (comprising 3 to 16 carbon atoms) with known logP values (determination of the logP values by the retention times using linear interpolation between two successive alkanones). lambda-max-values were determined using UV-spectra from 200 nm to 400 nm and the peak values of the chromatographic signals.

Alternaria alternate = test: In vitro cell test on Alternaria alternate; assay type: cell-based; conditions: 120 h, 20 ppm of active ingredient, 5 days incubation, spectrometric measurement of mycelium growth, read-out: efficacy (inhibition of fungal growth)
Protocol: Example B: In Vitro Cell Test on Alternaria alternate Solvent: dimethyl sulfoxide Culture medium: 14.6 g anhydrous D-glucose (VWR), 7.1 g mycological peptone (Oxoid), 1.4 g granulated yeast extract (Merck), […] Inoculum: spore suspension The tested compounds were solubilized in dimethyl sulfoxide and the solution used to prepare the required range of concentrations. […] A spore suspension of Alternaria alternate was prepared and diluted to the desired spore density. Compounds were evaluated for their ability to inhibit spore germination and mycelium growth in liquid culture assay. The compounds were added in the desired concentration to the culture medium with spores. After 5 days incubation, fungi-toxicity of compounds was determined by spectrometric measurement of mycelium growth. Inhibition of fungal growth was determined by comparing the absorbance values in wells containing the compounds with the absorbance in control wells without fungicides.

[2] = test system: Colletotrichum lindemuthianum; test: In vitro cell test on Colletotrichum lindemuthianum; assay type: cell-based; conditions: 144 h, 20 ppm of active ingredient, 6 days incubation, spectrometric measurement of mycelium growth, read-out: efficacy (inhibition of fungal growth)
Protocol: Example C: In Vitro Cell Test on Colletotrichum lindemuthianum Solvent: dimethyl sulfoxide Culture medium: 14.6 g anhydrous D-glucose (VWR), 7.1 g mycological peptone (Oxoid), 1.4 g granulated yeast extract (Merck), QSP 1 liter Inoculum: spore suspension The tested compounds were solubilized in dimethyl sulfoxide and the solution used to prepare the required range of concentrations. […] A spore suspension of Colletotrichum lindemuthianum was prepared and diluted to the desired spore density. Compounds were evaluated for their ability to inhibit spores germination and mycelium growth in liquid culture assay. The compounds were added in the desired concentration to the culture medium with spores. After 6 days incubation, fungi-toxicity of compounds was determined by spectrometric measurement of mycelium growth. Inhibition of fungal growth was determined by comparing the absorbance values in wells containing the compounds with the absorbance in control wells without fungicides.

SMILES | logP [1] | other results
C[Si](C)(c1ccccc1)c1ccccc1Cn1cnc2ccccc21 [I.01, 1-{2-[dimethyl(phenyl)silyl]benzyl}-1H-benzimidazole] |  | inhibition at 20 ppm (Pyricularia oryzae): 90 to 100%; chromatographic logP [1]: 2.57; inhibition at 20 ppm (Alternaria alternate): 80 to 89%; inhibition at 20 ppm [2]: 90 to 100%
C[Si](C)(c1ccc(-c2ccccc2)cc1)c1ccccc1Cn1cnc2ccccc21 [I.40] | 3.39 | 
Cc1nc2ccccc2n1Cc1ccccc1[Si](C)(C)c1ccc(-c2ccccc2)cc1 [I.46] | 3.18 | 
Cc1cc2nc(C)n(Cc3ccccc3[Si](C)(C)c3ccc(-c4ccccc4)cc3)c2cc1C [I.53] | 3.29 | 
Cc1cc2ncn(Cc3ccccc3[Si](C)(C)c3ccc(-c4ccccc4)cc3)c2cc1C [I.48] | 3.33 | 
